Data taken from patent US7655633B2, “Nitrogen-containing heterocyclic derivatives, medicinal compositions containing the same and medicinal use thereof” (Kissei Pharmaceutical Co., Ltd., priority 2002, dated 2010).

Biological target: T1, human SGLT2 (Homo sapiens, UniProt P31639)
T1 construct: expressed in transfected cells
T1 sequence (P31639 1-672): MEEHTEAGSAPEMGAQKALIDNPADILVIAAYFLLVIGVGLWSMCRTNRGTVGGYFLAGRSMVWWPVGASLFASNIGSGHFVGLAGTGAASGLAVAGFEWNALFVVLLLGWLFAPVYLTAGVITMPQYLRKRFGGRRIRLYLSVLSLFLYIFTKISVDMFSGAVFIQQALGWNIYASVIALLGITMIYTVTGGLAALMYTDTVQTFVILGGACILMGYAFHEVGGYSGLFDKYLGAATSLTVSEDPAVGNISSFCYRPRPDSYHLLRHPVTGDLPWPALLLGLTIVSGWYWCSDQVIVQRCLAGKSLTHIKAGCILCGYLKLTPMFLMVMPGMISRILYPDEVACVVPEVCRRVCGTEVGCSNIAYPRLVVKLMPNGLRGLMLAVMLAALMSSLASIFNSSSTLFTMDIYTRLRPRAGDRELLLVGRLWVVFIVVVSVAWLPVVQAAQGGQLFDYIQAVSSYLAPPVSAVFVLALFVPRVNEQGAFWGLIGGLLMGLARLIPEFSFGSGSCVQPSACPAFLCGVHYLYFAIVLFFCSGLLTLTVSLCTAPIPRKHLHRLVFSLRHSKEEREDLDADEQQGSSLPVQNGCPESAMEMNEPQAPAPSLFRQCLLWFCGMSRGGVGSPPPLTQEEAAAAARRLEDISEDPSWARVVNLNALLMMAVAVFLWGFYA
Assay: Assay for inhibitory effects on human SGLT2 activity (uptake of methyl-α-D-glucopyranoside in CS2-5E cells)
Type: cell-based
Details: inhibition of 14C-labeled α-MG (1 mM) uptake, CHO-K1 cells stably expressing human SGLT2 (CS2-5E), 37° C., 1 hour
Description: Assay for Inhibitory Effects on Human SGLT2 Activity
1) Cloning and Construction of the Vector Expressing Human SGLT2
The cDNA library was prepared for PCR amplification by reverse transcription from total RNA deprived from human kidney (Ori gene) using oligo-dT as a primer. Using this cDNA library as a template, the base sequence coding 2 to 2039 bp of human SGLT2 (ACCESSION: M95549, M95299), which was reported by R. G. Wells et al., was amplified by PCR method and inserted into the multi-cloning site of pcDNA3.1(−) (Invitrogen). The DNA sequence inserted was perfectly matched to the previously reported sequence.
2) Establishment of Cell Line Stably Expressing Human SGLT2
The expression vector of human SGLT2 was digested by Sca I into a linear DNA. The linear DNA was transfected into CHO-K1 cells by means of lipofection (Effectene Transfection Reagent: QIAGEN). Neomycin resistant cell lines were obtained by culture in the medium containing 1 mg/mL of G418 (LIFE TECHNOLOGIES), and then the activity against the uptake of methyl-α-D-gluco-pyranoside was measured by the method described below. […] Afterward, CS2-5E cells were cultured in the presence of G418 at 200 μg/mL. […]
CS2-5E cells were seeded into a 96-well culture plate at a density of 3×10^4 cells/well and cultured for 2 days, and were used in the uptake assay. […] Radioactivity was measured by means of scintillation counter (Packard). […]

IC50: 3 nM
SMILES: Cc1cc(C)c(Cc2ccc(C)c(F)c2)c(O[C@@H]2O[C@H](CO)[C@@H](O)[C@H](O)[C@H]2O)n1 [Example 1, 2-(β-D-Glucopyranosyloxy)-3-(3-fluoro-4-methylbenzyl)-4,6-dimethylpyridine]
